“And” between values parts separate entries of the source, which are not always exact repeats. Equal entries are not always repeated.
How the values were obtained:
[1] = test system: bladder cancer cell line RT112; assay: Apoptosis: cytoplasmic histone-associated DNA fragments, photometric enzyme immunoassay (FIG. 1); assay type: cell-based, human
Procedure: FIG. 1: FIG. 1 is a representation of apoptosis measurements with a bladder cancer cell line RT112. […] Besides the control measurements without Diflunisal, there is also a “positive” control (CAM) registered with a defined calibrated system. Apoptosis was measured by determination of cytoplasmic histone-associated DNA fragments (mono- and oligonucleosomes) after induced cell death. The qualitative and quantitative in vitro determination of apoptosis in RT112 tumor cells was analyzed with a photometric enzyme immunoassay. In brief, RT112 cells were harvested, washed twice and resuspended in culture media to yield a density of 2.5×10^5/ml. 100 μl/well of the RT112 cell suspension were seeded into 96 well microtiter plates (obtainable from BECTON DICKINSON) and incubated overnight at 37° C. and 5% CO2. The supernatant was replaced by 90 μl pH-adjusted culture medium alone (control). Again, the cells were incubated for various time periods at 37° C. and 5% CO2. Supernatants of the cell cultures were discarded and RT112 cells were lysed in lysis buffer for 30 minutes at RT (25° C.). The cytoplasmic fractions were transferred into a streptavidin-coated microtiter plate, and the working procedure for the ELISA was performed according to the manufacturer's instructions (the ELISA test was obtained from BOEHRINGER […], Germany). […] But there is also a superimposed part of the third level.

leukemia cell line K-562 = assay: Pore formation: PI-stained dead cells by flow cytometry (FIG. 2); assay type: cell-based, human
Procedure: FIG. 2: FIG. 2 is a representation of pore formation under conditions of interstitial albumin concentration of 0.2 mM. […] The dead cell fraction compared to the total cell number is measured in a flow cytometer. The experiments were conducted with the leukemia cell line K-562. […] Of minor interest is the second pore formation process starting at pH 6.4, because this process functions beyond the acidity milieu of most tumors. […] Pore formation was measured by determination of the necrotic cells measured by flow cytometry. Cultures of the leukemia cell line K-562 were harvested, and 5×10^5 cells were added into 6 ml tubes (BD). After centrifugation (250×g; 5 min; room temperature (25° C.)) the cells were resuspended in 900 μl pH-adjusted culture medium (pH 6.0-7.4; RPMI 1640 without NaHCO3; available from SIGMA). Then test substances were added to the samples and cells were incubated in a final volume of 1 ml at 37° C. in a water bath. After the incubation period the pH of the samples was measured, and the cells were washed and resuspended in 300 μl FACS medium (PBS+2% FCS and 0.1% NaN3). Cells were stained with propidium iodide (PI; available form SIGMA; 25 μl/25 μg/tube) for 15 minutes at RT (25° C.). Subsequently analysis of the stained cells was performed on an EPICS XL-MCL flow cytometer (available from COULTER, Krefeld, Germany), equipped with a 15 mW argon laser at an excitation wavelength of 488 nm. PI fluorescence was measured in the red channel (FL3; 620 nm longpass filter). Data acquisition and analysis was performed using XL-System II software (available from the company COULTER). It can be seen that Diflunisal causes pH-dependent pore formation in cancer cells.

RT112 cells = assay: Respiration: mitochondrial activity, XTT assay (FIG. 4); assay type: cell-based, human
Procedure: This behavior reflects the apoptosis induction from the second affinity level of albumin. Increasing the concentrations higher than 1.0 mM also the whole respiration activity within the pH range 7.0-7.4 is diminished and falls to 0 at 1.5 mM. The same is true with concentrations up to 2.0 mM. This effect is introduced by apoptosis at pH 7.0-7.4, accelerated by the third and fourth affinity level of albumin. […] The mitochondrial activity of RT112 was determined using a colorimetric assay (XTT assay). […] The mitochondrial succinate-tetrazolium reductase system cleaves the tetrazolium salt XTT to formazan. The amount of this dye is directly correlated to the number of metabolically active cells, as the enzyme system is only active in respirating and viable cells. For this purpose, RT112 cells were harvested, washed twice and resuspended in culture media to yield a density of 2.5×10^5/ml. 100 μl/well of the RT112 cell suspension were seeded into 96 well microtiter plates (BECTON DICKINSON (BD), Heidelberg, Germany) and incubated overnight at 37° C. and 5% CO2. The supernatant was replaced by 90 μl pH-adjusted culture medium (pH 6.0-7.4) and 10 μl of preferred substances or 100 μl/well pH-adjusted culture medium alone (control). The cells were incubated for various time periods at 37° C. and 5% CO2. Thereafter, cells were washed twice and reincubated in fresh pH-adjusted culture medium. After the incubation period, pH of each well was determined with highly sensitive microelectrodes before 50 μl XTT labeling mixture was added. The cells were further incubated for additional 4 h at 37° C. and 5% CO2. The spectrophotometric absorbance of the samples was measured using a microtiter plate (ELISA) reader ([…], Denkendorf, Germany) at a wavelength of […] (630 nm as reference). Data acquisition and analysis was performed using BioLinx 2.1 software ([…]).

[2] = test system: bladder cancer cell line RT112; assay: Lactate transport: enzymatic determination of lactate in supernatants (FIG. 3); assay type: cell-based, human
Procedure: There is plotted a control measurement which indicates lactate efflux in dependence of pH and without any Diflunisal influence. […] The lactate transport was measured by qualitative enzymatic determination of lactate in supernatants of RT112 cells at 340 nm. RT112 cells were harvested, washed twice and resuspended in culture media to yield a density of 2×10^5/ml. 500 μl/well of the RT112 cell suspension were seeded into 24 well microtiter plates (BD) and incubated overnight at 37° C. and 5% CO2. The supernatant was replaced by 450 μl pH-adjusted culture medium (pH 6.0-7.4) and 50 μl of the solution of preferred substances or 500 μl/well pH-adjusted culture medium alone (control). Again, the cells were incubated for 24 h at 37° C. and 5% CO2. The measurement of lactate in the supernatants at 340 nm (PERKIN-ELMER, Lambda 17. UV-VIS Spectrophotometer, Überlingen, Germany) was performed according to the manufacturer's instructions (SIGMA DIAGNOSTICS, Deisenhofen, Germany; Lactate: Quantitative, Enzymatic Determination of Lactate in Whole Blood at 340 nm (Procedure No. 826-UV)).

[3] = test system: colon and colorectal cancer; settings: cited from earlier work
[4] = Resorption of orally administered Diflunisal: concentration in blood / interstitial milieu; assay type: in vivo
[5] = 1.0 mM Diflunisal, 0.06 mM albumin, third affinity level
[6] = 3 Diflunisal molecules bound to albumin, 0.17 mM albumin
[7] = 1.0 mM Diflunisal, 0.2 mM albumin
[8] = ratio 6:1 Diflunisal to albumin

Which “pH at which apoptosis ends” value [1, 5] does the source give for `O=C(O)c1cc(-c2ccc(F)cc2F)ccc1O` [Diflunisal, 5-(2,4-difluorophenyl)salicylic acid] here?
Its value is 7.4 pH.

And the “pH at which apoptosis starts” value [1, 5]?
Its value is 7.0 pH.

And the “pH range in which apoptosis occurs” value ([1]; 4 to 6 Diflunisal bound to albumin)?
The value was 6.0-7.2 pH.

What about the “pH range in which apoptosis is achieved” value ([1]; Diflunisal/albumin ratio 7-9, 0.17 mM albumin) of the same molecule?
Its value is 7.0-7.4 pH.

What about the “starting pH of the second pore formation process” value (leukemia cell line K-562; 0.2 mM albumin) of the same molecule?
The value was 6.4 pH.

What about the “pH of pore formation, third affinity level of albumin” value (leukemia cell line K-562; 1.25 mM to 1.5 mM Diflunisal, 0.2 mM albumin) of the same molecule?
The value was no more than 7.0 pH.

And the “pH at which pore formation happens” value (leukemia cell line K-562; [6])?
The value was less than 6.5 pH.

What about the “interstitial concentration from which pore formation starts in a therapy-relevant pH range” value (leukemia cell line K-562; FIG. 2, 0.2 mM albumin) of the same molecule?
Its value is no less than 1.25 mM.

And the “pH at which pore formation can be produced” value (leukemia cell line K-562; cancer cell suspensions, flow cytometer)?
Its value is less than 7.0 pH.

What about the “starting pH of a third transport system (fourth affinity level of albumin)” value (leukemia cell line K-562; not shown in FIG. 2) of the same molecule?
The value was 7.2-7.3 pH.

What about the “interstitial Diflunisal concentration at which pore formation starts” value (leukemia cell line K-562; pH<7.0) of the same molecule?
The value was “about 0.7 mM”.

What about the “pH at which deviation from normal respiration activity reaches its maximum” value (RT112 cells; [7]) of the same molecule?
The value was roughly 6.9 pH.

And the “pH at which inhibition of respiration activity starts” value (RT112 cells; [7])?
The value was roughly 7.2 pH.

And the “respiration activity within pH range 7.0-7.4” value (RT112 cells; 1.5 mM Diflunisal (same up to 2.0 mM), 0.2 mM albumin)?
The value was 0.

And the “pH range of the new respiration blockade effect” value (RT112 cells; 7 to 9 Diflunisal to albumin)?
The value was 7.0-7.4 pH.

And the “blockade of the respiration chain” value (RT112 cells; ratio 4:1 Diflunisal to albumin)?
The value was “significant increase in activity”.

What about the “pH range in which the blockade effect declines to ineffectiveness” value (RT112 cells; [8]) of the same molecule?
The value was 6.9 to 7.2 pH.

What about the “pH up to which the respiration blockade reaches an optimum” value (RT112 cells; [8]) of the same molecule?
The value was no more than 6.9 pH.

What about the “blockade of the respiration chain” value (RT112 cells; three bound Diflunisal molecules per albumin) of the same molecule?
Its value is “no substantial blockade”.

And the “pH range of lactate antiport” value [2, 6]?
The value was 6.6-7.4 pH.

And the “pH range in which lactate efflux is remarkably enhanced” value ([2]; FIG. 3, against control without Diflunisal)?
Its value is 6.0 to 7.2 pH.

And the Diflunisal/lactate antiport ([2]; three Diflunisal bound to albumin, first affinity stage)?
The Diflunisal/lactate antiport was “no antiport happens”.

What about the “active concentration of Diflunisal” value ([3]; Life Science 70, 2001, 37-48) of the same molecule?
The value was “suprapharmacological and intrinsically cytotoxic”.

What about the cancer cell kill ([3]; patient treatments, 1000 mg/day) of the same molecule?
Its cancer cell kill is “no cancer cell kill takes place”.

And the concentration in blood ([4]; 100 mg/kg administered orally)?
The concentration in blood was no more than 1000 µM.

And the “dose at which the saturation concentration is reached” value ([4]; oral administration)?
Its value is 50 mg/kg.

And the “saturation concentration in blood” value ([4]; oral administration)?
The value was 250 µg/mL.

What about the “saturation concentration (resorption saturation)” value ([4]; oral administration, converted from 250 μg/ml) of the same molecule?
The value was 1.00 mM and 1.0 mM.

What about the interstitial concentration ([4]; patient treatments, 1000 mg/day, Diflunisal to albumin ratio <2:1) of the same molecule?
The interstitial concentration was less than 0.3 mM.

From patent publication US20060293390A1 (priority 2003, published 2006)
